Test results reported in patent publication US11512085B2, “Heteroaryl compound having drug activity” (SHANGHAI DUDE MEDICAL TECHNOLOGY CO., LTD, priority 2017, dated 2022).

Tests used:
Jeko-1 = experiment: In vitro tumor cell proliferation (CellTiter-Glo), Jeko-1; type: cell-based; settings: Homo sapiens, JeKo-1, 72 h; read-out: Growth IC50
Description: (§1) Biological Embodiment 8: Study on Effects of Active Compounds for Inhibiting In Vitro Tumor Cell Proliferation
(§2) Promega CellTiter-Glo cell activity detection kit by luminescence (Promega-G7573).
(§3) Tumor cell lines were cultured in a 5% of CO2 incubator at 37° C. according to respective culture conditions; and periodic passage was performed, and cells positioned in a logarithmic phase were taken for planking.
(§4) 3) 90 μL of cell suspension was added into each well of the culture plate, and a culture solution containing no cell was added into blank control;
(§5) 4) the culture plate was cultured overnight in the 5% of CO2 incubator having relative humidity of 100% at 37° C.
(§6) Preparation of a 400× compound storage plate: the compound was diluted from the maximum concentration gradient to the lowest concentration with DMSO. […]
(§7) The following steps were performed according to the specification of the Promega CellTiter-Glo cell activity detection kit by luminescence (Promega-G7573). […]
(§8) 9) the luminescence signal was detected on the 2104 EnVision plate reader.

p-Btk/t-Btk = experiment: Western blotting of p-Btk/t-Btk in anti-IgG stimulated DOHH2 cells; type: cell-based; settings: DOHH2 cells, 5, 100, 2000 nM, 1 h, anti-IgG stimulation
Description: Biological Embodiment 4: Analysis of Influences of Test Compounds on p-Btk/t-Btk, p-PLCγ/t-PLCγ and p-Erk/t-Erk Expression Levels of DOHH2 Cells by Virtue of Western Blotting
1) DOHH2 cells on a logarithmic phase were collected;
2) a cell concentration was adjusted to a needed concentration;
3) 2 ml of cell suspension was added into a 6-well plate for performing culture, three different concentrations, that is, 5 nM, 100 nM and 2000 nM, of test samples were respectively set, and each concentration was repeated once;
4) test samples were added into plate wells, and DMSO served as control, wherein a final concentration of the DMSO was 0.1%;
5) culture was performed for 1 h; and […]
6. protein extraction and quantification […]
5) a protein concentration was determined by using Pierce™ BCA Protein Assay Kit; and
6) according to BCA protein quantification results, all samples were diluted to the same final concentration by adding 4×LDS sample buffer and 10× sample reducing agent into the RIPA buffer solution, and the solution was heated at 100° C. for 10 min. […]
10) chemiluminiscence was detected by Tanon 5200 multi.
7. Quantification of strip intensity
Intensity of each strip was quantified by using Image quant densitometry software. […]

SU-DHL-10 = experiment: In vitro tumor cell proliferation (CellTiter-Glo), SU-DHL-10; type: cell-based; settings: Homo sapiens, SU-DHL10; SU-DHL-10, 72 h; read-out: Growth IC50
Description: as §1, §2, §3, §4, §5, §6, §7, §8

Granta-519 = experiment: In vitro tumor cell proliferation (CellTiter-Glo), Granta-519; type: cell-based; settings: Homo sapiens, Granta-519, 72 h; read-out: Growth IC50
Description: as §1, §2, §3, §4, §5, §6, §7, §8

Btk = Btk (Homo sapiens, UniProt Q06187); experiment: Determination of Btk enzyme inhibitory activity; type: biochemical; settings: 2 nM BTK
Description: Determination of Btk Enzyme Inhibitory Activity
Buffer solution: 50 mM Hepes pH 7.0, 0.1 mM Orthovanadate, 5 mM MgCl2, 0.01% of BSA;
1 mM TK-peptide, […], 50 nM SEB;
Pre-incubation for 15 minutes;
Reaction at 23° C. for 90 minutes;
Color Development Reaction:
Developing buffer solution: 50 mM Hepes pH8.0, 0.8 M KF, 20 mM EDTA, 0.01% BSA;
Reaction at 23° C. for 60 minutes;

OCI-LY10 = experiment: In vitro tumor cell proliferation (CellTiter-Glo), OCI-LY10; type: cell-based; settings: Homo sapiens, OCI-Ly10, 72 h; read-out: Growth IC50
Description: as §1, §2, §3, §4, §5, §6, §7, §8

B cells = experiment: B cell activation (anti-human IgM, CD69 staining); type: cell-based; settings: concentration of 0.1 uM
Description: Biological Embodiment 3: Influences of In-Vitro Test Compounds on PBMC/B/T Cell Activation
4.3 Isolation of B Cells and T Cells
Cell Isolation Programs Shall Refer to […] Kits
4.4.1 Activation of B Cells
The co-culture system is as follows:
Antibody Staining and Data Analysis
Antibody staining was performed within 24 hours […] according to a standard method.
4.5.1 Activation of PBMC and B Cells
LIVE/DEAD Fixable Violet Dead Cell Stain Kit

SU-DHL-4 = experiment: In vitro tumor cell proliferation (CellTiter-Glo), SU-DHL-4; type: cell-based; settings: Homo sapiens, SU-DHL-4, 72 h; read-out: Growth IC50
Description: as §1, §2, §3, §4, §5, §6, §7, §8

Ramos = experiment: In vitro tumor cell proliferation (CellTiter-Glo), Ramos; type: cell-based; settings: Homo sapiens, 72 h, read-out: Growth IC50
Description: as §1, §2, §3, §4, §5, §6, §7, §8

Chain of Btk (Q06187 whole entry): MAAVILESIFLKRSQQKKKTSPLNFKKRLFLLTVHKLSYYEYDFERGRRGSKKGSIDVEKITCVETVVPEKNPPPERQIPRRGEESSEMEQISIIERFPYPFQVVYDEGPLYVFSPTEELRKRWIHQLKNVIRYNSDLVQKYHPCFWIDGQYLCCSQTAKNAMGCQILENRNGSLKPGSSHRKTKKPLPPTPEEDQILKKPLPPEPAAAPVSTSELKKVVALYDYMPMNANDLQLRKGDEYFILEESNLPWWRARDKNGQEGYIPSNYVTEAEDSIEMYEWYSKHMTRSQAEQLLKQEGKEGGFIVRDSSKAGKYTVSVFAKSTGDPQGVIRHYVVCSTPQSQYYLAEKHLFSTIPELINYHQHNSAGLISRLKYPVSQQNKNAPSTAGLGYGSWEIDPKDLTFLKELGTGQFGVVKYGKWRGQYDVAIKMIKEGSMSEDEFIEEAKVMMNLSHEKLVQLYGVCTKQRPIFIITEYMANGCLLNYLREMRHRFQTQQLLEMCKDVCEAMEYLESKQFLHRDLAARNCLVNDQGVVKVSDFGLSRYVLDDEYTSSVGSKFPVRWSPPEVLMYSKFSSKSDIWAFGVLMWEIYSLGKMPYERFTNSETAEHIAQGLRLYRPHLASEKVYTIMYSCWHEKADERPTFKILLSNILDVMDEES

**Q.** Which results are given for C=CC(=O)NN1CCCC(n2nc(-c3ccc(Oc4ccccc4)cc3)c3c(N)ncnc32)C1 (stereo not drawn) [Embodiment 6, N-(3-(4-amino-3-(4-phenoxyphenyl)-1H-pyrazolo[3,4-D]pyrimidine-1-yl)-1-piperidyl)-acrylamide]?
**A.** IC50 (Jeko-1): > 10000 nM; relative level of p-Btk/t-Btk (p-Btk/t-Btk): obviously decreased; IC50 (SU-DHL-10): > 10000 nM; IC50 (Granta-519): 7060 nM; IC50 (Btk): 0.27 nM; IC50 (OCI-LY10): 6 nM; B cell activity inhibition effect (B cells): obvious B cell activity inhibition effects; IC50 (SU-DHL-4): 75 nM; IC50 (Ramos): 1400 nM
